According to article PMC8844856, “Structural basis of cyclic oligoadenylate binding to the transcription factor Csa3 outlines cross talk between type III and type I CRISPR systems” (The Journal of Biological Chemistry, 2022):
Entries after “also recorded” stand apart in the source; their conditions may differ.

Key:
His6-Csa3Sso (WT) [1] = target: T1, His6-Csa3Sso (WT) (Saccharolobus solfataricus, UniProt Q97Y88); test: Microscale thermophoresis (MST) binding of cOA ligands to wildtype Csa3Sso
T1 construct: made in house; host or cells: E. coli BL21(DE3)-pLysS
T1 sequence (Q97Y88 1-237): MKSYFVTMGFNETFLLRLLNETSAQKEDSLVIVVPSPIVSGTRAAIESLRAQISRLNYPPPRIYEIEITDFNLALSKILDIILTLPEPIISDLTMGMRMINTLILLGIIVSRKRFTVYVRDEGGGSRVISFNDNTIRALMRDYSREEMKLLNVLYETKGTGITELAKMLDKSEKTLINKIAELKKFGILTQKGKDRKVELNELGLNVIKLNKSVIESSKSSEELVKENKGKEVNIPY
Method: (§1) The ligand-binding specificity of Csa3Sso (WT) and the role of Csa3Sso residues in ligand binding were determined by microscale Thermophoresis (MST). Wildtype or mutant His6-Csa3Sso (200 nM) was fluorescently labeled in 2× binding buffer (10 mM Na/K phosphate, pH 5.8, 10 mM MgCl2, 25 mM NaCl, and 0.05% Tween 20) using 100 nM RED-Tris NTA His-Tag labeling dye (Nanotemper Technologies, Inc) and incubated in the dark at room temperature for 30 min. Two millimolar stocks of synthetic ligands including cA3, cA4, and cA6 (Biolog Life Science Institute) or linear ribonucleotide 5′-rCrArArArA-3′ (Bio-Synthesis Inc) were serially diluted in a 1:1 ratio with nuclease-free water. The labeled proteins were then mixed with ligands in a 1:1 ratio. Only cA4 was used in the MST experiments with the Csa3Sso mutants (2 mM stocks of cA4 were used for F10A, F14A, G96A, and R98A mutants, and 20 μM stocks were used for E122A and E122Q mutants). The mixtures of proteins and ligands were incubated in the dark at room temperature for 30 min. The precipitated material was removed by centrifugation at 6000 rpm for 5 min. The supernatants were then loaded into Monolith NT.115 Series Premium capillaries in triplicate, and the thermophoresis was detected with 40% excitation power and 40% IR-laser power for an on-time of 20 s at 25 °C.
(§2) The binding affinities of oligonucleotides and PCas4a to Csa3Sso (WT and mutants) were analyzed according to the law of mass action in a standard fitting mode of MO.Affinity analysis software (version 2.3).

Csa3bSis = target: Csa3bSis; design: method as in PMID 32983033; conditions: surface plasmon resonance; cited from earlier work
[2] = test system: Csa3bSis binding to the Pcsa1 promoter; design: method as in PMID 32983033; conditions: in the presence of the cA4 analog in vitro; cited from earlier work
Csa3Sso F10A mutant = target: T2, Csa3Sso F10A mutant (Saccharolobus solfataricus, UniProt Q97Y88, F10A); test: MST binding of cA4 to Csa3Sso F10A mutant; conditions: Fig. 4E
T2 construct: made in house; host or cells: E. coli BL21(DE3)-pLysS (pET21b)
T2 sequence (Q97Y88 whole entry F10A): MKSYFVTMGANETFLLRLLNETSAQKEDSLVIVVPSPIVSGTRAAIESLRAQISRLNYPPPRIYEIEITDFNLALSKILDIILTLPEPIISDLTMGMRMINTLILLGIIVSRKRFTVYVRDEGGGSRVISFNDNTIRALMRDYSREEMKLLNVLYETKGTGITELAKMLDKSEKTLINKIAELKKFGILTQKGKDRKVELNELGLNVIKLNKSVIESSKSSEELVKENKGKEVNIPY
Method: as §1, with “The mixtures of proteins and ligands were incubated in the dark at room temperature for 30 min. The precipitated material was removed by centrifugation at 6000 rpm for 5 min.” left out
as §2

Csa3Sso F14A mutant = target: T3, Csa3Sso F14A mutant (Saccharolobus solfataricus, UniProt Q97Y88, F14A); test: MST binding of cA4 to Csa3Sso F14A mutant; conditions: Fig. 4E
T3 construct: made in house; host or cells: E. coli BL21(DE3)-pLysS (pET21b)
T3 sequence (Q97Y88 whole entry F14A): as the sequence (Q97Y88 whole entry F10A) above, with A10F, F14A counted along it
Method: as §1, with “The mixtures of proteins and ligands were incubated in the dark at room temperature for 30 min. The precipitated material was removed by centrifugation at 6000 rpm for 5 min.” left out
as §2

Csa3Sso G96A mutant = target: T4, Csa3Sso G96A mutant (Saccharolobus solfataricus, UniProt Q97Y88, G96A); test: MST binding of cA4 to Csa3Sso G96A mutant; conditions: Fig. 4E
T4 construct: made in house; host or cells: E. coli BL21(DE3)-pLysS (pET21b)
T4 sequence (Q97Y88 whole entry G96A): as the sequence (Q97Y88 whole entry F10A) above, with A10F, G96A counted along it
Method: as §1, with “The mixtures of proteins and ligands were incubated in the dark at room temperature for 30 min. The precipitated material was removed by centrifugation at 6000 rpm for 5 min.” left out
as §2

Csa3Sso R98A mutant = target: T5, Csa3Sso R98A mutant (Saccharolobus solfataricus, UniProt Q97Y88, R98A); test: MST binding of cA4 to Csa3Sso R98A mutant; conditions: Fig. 4E
T5 construct: made in house; host or cells: E. coli BL21(DE3)-pLysS (pBB75)
T5 sequence (Q97Y88 whole entry R98A): as the sequence (Q97Y88 whole entry F10A) above, with A10F, R98A counted along it
Method: as §1, with “The mixtures of proteins and ligands were incubated in the dark at room temperature for 30 min. The precipitated material was removed by centrifugation at 6000 rpm for 5 min.” left out
as §2

Csa3Sso = target: T6, Csa3Sso (Saccharolobus solfataricus, UniProt Q97Y88); test: Ring nuclease activity assay (C18 HPLC), wildtype Csa3Sso; assay type: biochemical; conditions: 3 h
T6 construct: made in house; host or cells: E. coli BL21(DE3)-pLysS
T6 sequence (Q97Y88 1-237): T1 sequence (Q97Y88 1-237)
Method: (§3) […]. The reaction mixtures were deproteinized by ultrafiltration with an Amicon Ultra 3 kDa cutoff centrifugal filter (Millipore). […]. For both conditions, the products and controls were collected and analyzed with High Performance Liquid Chromatography system (UltiMate 3000, Thermo Scientific) equipped with the C18 column (4.6 × 100 mm, […], Thermo Scientific) and C18 column, (15 cm × 4.6 mm, […], Supelco), for the first and second conditions, respectively.

Csa3Sso-E122A = target: T7, Csa3Sso-E122A (Saccharolobus solfataricus, UniProt Q97Y88, E122A); test: Ring nuclease activity assay (C18 HPLC), Csa3Sso-E122A; assay type: biochemical; conditions: 5 μM E122A mutant, 500 μM cA4, 60 °C, 3 h, Fig. S5C
T7 construct: made in house; host or cells: E. coli BL21(DE3)-pLysS (pET21b)
T7 sequence (Q97Y88 whole entry E122A): as the sequence (Q97Y88 whole entry F10A) above, with A10F, E122A counted along it
Method: as §3

Csa3Sso-E122Q = target: T8, Csa3Sso-E122Q (Saccharolobus solfataricus, UniProt Q97Y88, E122Q); test: Ring nuclease activity assay (C18 HPLC), Csa3Sso-E122Q; assay type: biochemical; conditions: 5 μM E122Q mutant, 500 μM cA4, 60 °C, 3 h, Fig. S5C
T8 construct: made in house; host or cells: E. coli BL21(DE3)-pLysS (pET21b)
T8 sequence (Q97Y88 whole entry E122Q): as the sequence (Q97Y88 whole entry F10A) above, with A10F, E122Q counted along it
Method: as §3

His6-Csa3Sso (WT) [3] = target: T1, His6-Csa3Sso (WT); test: MST binding of PCas4a promoter DNA to Csa3Sso with or without cOAs; conditions: 50-fold excess of cOA (25 μM)
Method: The MST experiment and data analysis for ligand-induced changes in Csa3Sso binding affinity with PCas4a was performed as mentioned above except for the following: 1 μM of His6-Csa3Sso (WT) was fluorescently labeled in 2× binding buffer with 40 nM RED-Tris NTA His-Tag labeling dye in the absence or presence of cA4 or cA6. The labeling mixtures were incubated in the dark at room temperature for 30 min. A 50 μM stock of PCas4a was serially diluted in 1:1 ratios with nuclease-free water. The labeled proteins ± ligands were then mixed with diluted PCas4a in a 1:1 ratio and incubated in the dark at room temperature for 30 min. The supernatants obtained after removal of precipitated material were then loaded into Monolith NT.115 Series Premium capillaries in triplicate, and the thermophoresis was detected with 100% excitation power and 60% IR-laser power for an on-time of 20 s at 25 °C.
as §2

[4] = target: T9, Csa3Sso–PCas4a complex precipitates (Saccharolobus solfataricus, UniProt Q97Y88); test: Visual precipitation of Csa3Sso–PCas4a complexes in tubes, wildtype; conditions: 50 μM Csa3Sso WT, 10 μM PCas4a, 500 μM cA4, 30 min, 20 °C
T9 construct: made in house; host or cells: E. coli BL21(DE3)-pLysS
T9 sequence (Q97Y88 1-237): T1 sequence (Q97Y88 1-237)
Source text: (§4) […]. The DNA fragment docked onto protomer A in the cA4-bound Csa3Sso dimer sterically clashed with a region in the CARF domain from protomer B in this dimer (encircled by a red dotted circle). […] To obtain these models, wHTH domains of B. subtilis OhrR (PDB code: 1Z9C ([71]), RMSD: 1.7 Å) were individually superimposed onto wHTH domains of the Csa3Sso dimer and OhrR was omitted from the view for clarity. A single and straight model of B-form DNA with two copies of the palindromes could not be modeled with the apo Csa3Sso dimer owing to a slight misorientation (not shown) between Csa3Sso wHTH domains (possibly requiring a bend in the DNA). B, precipitation of Csa3Sso in the presence of PCas4a DNA and its solubilization by cA4 binding to the Csa3Sso CARF domain. […]. Cy5-labeled PCas4a, 50 nM, was added to different Csa3Sso concentrations ranging from 500 nM to 25 μM in the presence or absence of cA4 added in a 50:1 ratio of cA4:Csa3Sso. […].

[5] = target: T10, Csa3Sso-R98A mutant with PCas4a DNA (Saccharolobus solfataricus, UniProt Q97Y88, R98A); test: Visual precipitation of Csa3Sso-R98A with PCas4a DNA in tubes; conditions: 50 μM Csa3Sso R98A, 10 μM PCas4a, 500 μM cA4, 30 min, 20 °C
T10 construct: made in house; host or cells: E. coli BL21(DE3)-pLysS (pBB75)
T10 sequence (Q97Y88 whole entry R98A): as the sequence (Q97Y88 whole entry F10A) above, with A10F, R98A counted along it
Source text: as §4

Csa3Sso–PCas4a complex = Csa3Sso–PCas4a complex (Saccharolobus solfataricus, UniProt Q97Y88)
Method: Top and bottom DNA oligonucleotide strands used for EMSA were purchased from Sigma-Aldrich (Table S2). The oligonucleotide strands were annealed by mixing them in 1:1 molar ratio followed by heating at 98 °C for the unlabeled, or 70 °C for the Cy5-labeled, DNA fragments for 15 min. Slow cooling to room temperature was used to anneal the fragments. Unlabeled probe-containing samples used for Fig. S8C were electrophoresed using a 2% (w/v) agarose Tris-Borate-EDTA (TBE) gel at 100 V for 30 min at room temperature. Probes were stained with ethidium bromide and visualized using Gel Doc XR+ Molecular Imager (Bio-Rad). […] The Cy5-labeled probes were electrophoresed in a 5% acrylamide TBE gel at 100 V for 1 h at 4 °C. DNA bands were visualized using FluorChem R gel imager (Protein Simple, Inc).

[6] = target: Treponema succinifaciens Card1; design: method as in PMID 33461211; conditions: cited from earlier work

Molecule: 5′-rCrArArArA-3′ [5′CAAAA3′]
- specific binding to His6-Csa3Sso (His6-Csa3Sso (WT) [1]; MST): only cA4 exhibited a specific low micromolar binding
- Kd (Csa3bSis): 46.1 ± 8.14 µM
- fold increase in Csa3bSis binding affinity to the Pcsa1 promoter [2]: ~10 fold

Molecule: Nc1ncnc2c1ncn2[C@@H]1O[C@@H]2COP(=O)(O)O[C@H]3[C@@H](O)[C@H](n4cnc5c(N)ncnc54)O[C@@H]3COP(=O)(O)O[C@H]3[C@@H](O)[C@H](n4cnc5c(N)ncnc54)O[C@@H]3COP(=O)(O)O[C@H]3[C@@H](O)[C@H](n4cnc5c(N)ncnc54)O[C@@H]3COP(=O)(O)O[C@H]2[C@H]1O [cA4, cyclic tetra-adenylate]
- fold stronger binding of His6-Csa3Sso to cA4 than Csa3bSis to the linear cA4 analog (His6-Csa3Sso (WT) [1]; MST KD vs SPR KD of ref 57): 8 fold
- cA4 binding (Csa3Sso F10A mutant): complete loss of cA4 binding
- cA4 binding (Csa3Sso F14A mutant): complete loss of cA4 binding
- cA4 binding (Csa3Sso G96A mutant): completely lost the ability to bind cA4
- cA4 binding (Csa3Sso R98A mutant): completely lost cA4 binding
- cA4 hydrolysis (ring nuclease activity) (Csa3Sso; 5 μM Csa3Sso, 500 μM cA4, buffer G, 60 °C, Fig. 6): no sign of cA4 hydrolysis products; also recorded: No changes in the time-dependent stability of cA4
- cA4 hydrolysis (ring nuclease activity) (Csa3Sso; 50 µM Csa3Sso, 250 µM cA4, buffer G or binding buffer, 55 °C, Fig. S5 A, B): No changes
- cA4 hydrolysis (ring nuclease activity) (Csa3Sso-E122A): did not exhibit any gain of ring nuclease activity; also recorded: no ring nuclease activity was observed
- cA4 hydrolysis (ring nuclease activity) (Csa3Sso-E122Q): did not exhibit any gain of ring nuclease activity; also recorded: no ring nuclease activity was observed
- effect of excess cOA on PCas4a binding affinity of Csa3Sso (His6-Csa3Sso (WT) [3]): no significant effect; also recorded: did not significantly change
- effect on formation of Csa3Sso–PCas4a complex precipitates [4]: prevented their formation
- rescue of Csa3Sso-R98A from precipitating with DNA [5]: could not rescue
- effect on levels of soluble Csa3Sso–DNA complex (shifted band) (Csa3Sso–PCas4a complex): no effect
- Kd [6]: 0.015 µM
